Assay results from patent USRE49687E1, “Thienopyrimidine and thienopyridine compounds and methods of use thereof” (The Regents of The University of Michigan, priority 2014, dated 2023).

What follows are molecules tested against T1, menin-MLL interaction (Homo sapiens, UniProt O00255) (assay: Fluorescence polarization (FP) competition assay of the menin-MLL interaction). Settings: inhibition of the menin-MLL interaction; read-out: IC50 values for Table 1 inhibitors of menin.
T1 sequence (O00255 1-610): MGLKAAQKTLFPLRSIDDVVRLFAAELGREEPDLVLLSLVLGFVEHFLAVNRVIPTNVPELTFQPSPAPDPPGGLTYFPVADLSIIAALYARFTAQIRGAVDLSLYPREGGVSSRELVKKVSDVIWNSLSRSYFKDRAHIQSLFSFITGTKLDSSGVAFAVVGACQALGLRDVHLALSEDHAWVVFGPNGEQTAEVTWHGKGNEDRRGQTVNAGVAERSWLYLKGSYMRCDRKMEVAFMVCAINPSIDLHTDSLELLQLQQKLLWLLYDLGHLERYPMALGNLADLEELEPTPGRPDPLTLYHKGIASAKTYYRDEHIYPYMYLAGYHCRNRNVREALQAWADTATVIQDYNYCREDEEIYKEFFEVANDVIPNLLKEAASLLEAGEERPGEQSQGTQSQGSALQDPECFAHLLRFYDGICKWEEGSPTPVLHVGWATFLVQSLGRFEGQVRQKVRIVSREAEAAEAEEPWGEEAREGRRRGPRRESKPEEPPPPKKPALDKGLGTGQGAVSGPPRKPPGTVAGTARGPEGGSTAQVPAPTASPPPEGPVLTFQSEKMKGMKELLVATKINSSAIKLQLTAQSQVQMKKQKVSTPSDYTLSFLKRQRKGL
Type: binding

| IC50 | SMILES |
| --- | --- |
| < 30 nM | C=CC(=O)Nc1ccc(CCn2c(C#N)cc3c(C)c(CN4CCC(Nc5ncnc6sc(CC(F)(F)F)cc56)CC4)ccc32)cc1P(=O)(CC)CC [Compound 203] |
| 30 to 100 nM | Cc1c(CN2CCC(Nc3ncnc4sc(CC(F)(F)F)cc34)CC2)ccc2c1cc(C#N)n2CCc1cccc(P(C)(C)=O)c1 [Compound 204] |
| > 1000 nM | CP(C)(=O)c1cc2cc(CN3CCC(Nc4ncnc5sc(CC(F)(F)F)cc45)CC3)ccc2[nH]1 [Compound 205] |
| 100 to 1000 nM | C=CC(=O)Nc1ccc(CCn2c(C#N)cc3c(C)c(CN4CCC(Nc5ncnc6sc(CC(F)(F)F)cc56)CC4)ccc32)cc1P(=O)(C(C)C)C(C)C [Compound 206] |
| > 1000 nM | C[Si](C)(C)CCOCn1c(P(C)(C)=O)cc2cc(CN3CCC(Nc4ncnc5sc(CC(F)(F)F)cc45)CC3)ccc21 [Compound 207] |
| 30 to 100 nM | C=CC(=O)N1CCC(Cn2c(C#N)cc3c(C)c(CN4CCC(Nc5ncnc6sc(CC(F)(F)F)cc56)CC4)ccc32)C1 (stereo not drawn) [Compound 208] |
| 30 to 100 nM | C=CC(=O)Nc1ccc(C(C)(O)Cn2c(C#N)cc3c(C)c(CN4CCC(Nc5ncnc6sc(CC(F)(F)F)cc56)CC4)ccc32)cn1 (stereo not drawn) [Compound 209] |
| 100 to 1000 nM | C=CC(=O)N1CCC(C(O)Cn2c(C#N)cc3c(C)c(CN4CCC(Nc5ncnc6sc(CC(F)(F)F)cc56)CC4)ccc32)CC1 (stereo not drawn) [Compound 210] |
| 100 to 1000 nM | CCC(=O)N1CCC(C(O)Cn2c(C#N)cc3c(C)c(CN4CCC(Nc5ncnc6sc(CC(F)(F)F)cc56)CC4)ccc32)CC1 (stereo not drawn) [Compound 211] |
| 30 to 100 nM | CCC(=O)Nc1ccc(C(C)(O)Cn2c(C#N)cc3c(C)c(CN4CCC(Nc5ncnc6sc(CC(F)(F)F)cc56)CC4)ccc32)cn1 (stereo not drawn) [Compound 212] |

The next lines start with the molecule.

| SMILES | IC50 |
| --- | --- |
| C=CC(=O)N1CCC2(CCN(CCn3c(C#N)cc4c(C)c(CN5CCC(Nc6ncnc7sc(CC(F)(F)F)cc67)CC5)ccc43)C2)C1 (stereo not drawn) [Compound 172] | 30 to 100 nM |
| C=CC(=O)N1CC2(CN(CCn3c(C#N)cc4c(C)c(CN5CCC(Nc6ncnc7sc(CC(F)(F)F)cc67)CC5)ccc43)C2)C1 [Compound 174] | 30 to 100 nM |
| C=CC(=O)N1CCC2(CN(CCn3c(C#N)cc4c(C)c(CN5CCC(Nc6ncnc7sc(CC(F)(F)F)cc67)CC5)ccc43)C2)C1 [Compound 176] | 30 to 100 nM |
| C=CC(=O)N1CCC2(CC1)CN(CCn1c(C#N)cc3c(C)c(CN4CCC(Nc5ncnc6sc(CC(F)(F)F)cc56)CC4)ccc31)C2 [Compound 178] | 30 to 100 nM |
| C=CC(=O)N1CC2(CCN(CCn3c(C#N)cc4c(C)c(CN5CCC(Nc6ncnc7sc(CC(F)(F)F)cc67)CC5)ccc43)C2)C1 [Compound 182] | 30 to 100 nM |
| C=CC(=O)N1CC2(CCN(CCn3c(C#N)cc4c(C)c(CN5CCC(Nc6ncnc7sc(CC(F)(F)F)cc67)CC5)ccc43)CC2)C1 [Compound 184] | < 30 nM |
| Cc1c(CN2CCC(Nc3ncnc4sc(CC(F)(F)F)cc34)CC2)ccc2c1cc(C#N)n2CCc1cccc(N)c1 [Compound 189] | 30 to 100 nM |
| C=CC(=O)Nc1cccc(CCn2c(C#N)cc3c(C)c(CN4CCC(Nc5ncnc6sc(CC(F)(F)F)cc56)CC4)ccc32)c1 [Compound 190] | 100 to 1000 nM |
| C=CC(=O)Nc1cn(CCn2c(C#N)cc3c(C)c(CN4CCC(Nc5ncnc6sc(CC(F)(F)F)cc56)CC4)ccc32)cn1 [Compound 192] | 100 to 1000 nM |
| Cc1c(CN2CCC(Nc3ncnc4sc(CC(F)(F)F)cc34)CC2)ccc2c1cc(C#N)n2CCc1ccc(N)c(C#N)c1 [Compound 193] | 100 to 1000 nM |
| C=CC(=O)Nc1ccc(CCn2c(C#N)cc3c(C)c(CN4CCC(Nc5ncnc6sc(CC(F)(F)F)cc56)CC4)ccc32)cc1C#N [Compound 194] | 30 to 100 nM |
| Cc1c(CN2CCC(Nc3ncnc4sc(CC(F)(F)F)cc34)CC2)ccc2c1cc(C#N)n2CC(O)c1cccc(S(C)(=O)=O)c1 (stereo not drawn) [Compound 197] | 30 to 100 nM |
| C=CC(=O)Nc1ccc(CCn2c(C#N)cc3c(C)c(CN4CCC(Nc5ncnc6sc(CC(F)(F)F)cc56)CC4)ccc32)cc1P(C)(C)=O [Compound 199] | < 30 nM |
| Cc1c(CN2CCC(Nc3ncnc4sc(CC(F)(F)F)cc34)CC2)ccc2c1cc(C#N)n2CCc1ccc(P(C)(C)=O)cc1 [Compound 202] | 30 to 100 nM |
